The target in this test is mt G12D KRas (Homo sapiens, UniProt P01116, G12D). In words: Mant-GDP assay (inhibition of GTP displacing mant-GDP). It counts as binding. The following applies: for displacing mant-GDP from mt G12D KRas (in words): assay optimization, FIG. 1A.

We go through two compounds from US11352370B2, “Mutant KRAS inhibitors” (H. LEE MOFFITT CANCER CENTER AND RESEARCH INSTITUTE, INC., priority 2015, dated 2022).

Sequence of mt G12D KRas (P01116 1-188 isoform P01116-2 G12D): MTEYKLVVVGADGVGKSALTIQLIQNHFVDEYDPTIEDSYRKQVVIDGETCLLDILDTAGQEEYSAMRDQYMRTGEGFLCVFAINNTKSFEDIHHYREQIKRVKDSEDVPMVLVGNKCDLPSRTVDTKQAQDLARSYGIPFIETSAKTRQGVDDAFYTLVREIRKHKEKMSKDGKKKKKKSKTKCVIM

Turning to `Nc1nc2c(ncn2[C@@H]2O[C@H](COP(=O)(O)OP(=O)(O)O)[C@@H](O)[C@H]2O)c(=O)[nH]1` [GDP], the “displacing mant-GDP from mt G12D KRas (in words)” value is recorded as “very effective”. What is called IC50 is the point on the concentration scale where inhibition reaches its midpoint. For the compound `Nc1nc2c(ncn2[C@@H]2O[C@H](COP(=O)(O)OP(=O)(O)OP(=O)(O)O)[C@@H](O)[C@H]2O)c(=O)[nH]1` [GTP], the “displacing mant-GDP from mt G12D KRas (in words)” value is reported as “very effective”. For the same compound, where the note is “GTP titration in the absence of compounds, FIG. 3C, read-out: IC50 of GTP to displace mant-GDP”, the IC50 was 620 nM.
